The source of these data is patent US11078205B2, “Selective inhibitors of protein arginine methlytransferase 5 (PRMT5)” (Prelude Therapeutics, Incorporated, priority 2017, dated 2021).

Values after ≈ are worked out from the molar mass of the structure shown. Bounds are passed on as bounds.

One series concerns the target PRMT5/MEP50 complex (Homo sapiens (Human), UniProt O14744). Description: Biochemical assay: PRMT5/MEP50 methylation of histone H2A with 3H-SAM, filter plate scintillation. Particulars: histone H2A 5 μM, SAM 1 μM, PRMT5/MEP50 5 nM. On the procedure: Biochemical Assay Protocol
Compounds were solubilized and 3-fold diluted in 100% DMSO. […] Standard reactions were performed in a total volume of 50 μl in assay buffer, with histone H2A (5 μM final) as substrate. To this was added the PRMT5/MEP50 complex diluted to provide a final assay concentration of 5 nM and the compounds were allowed to preincubate for 15 to 20 minutes at room temperature. The reaction was initiated by adding S-[3H-methyl]-adenosyl-L-methionine (PerkinElmer) to final concentration of 1 μM. Following a 60 minutes incubation at 30° C., the reaction was stopped by adding 100 μL of 20% TCA. Each reaction was spotted onto filter plate (Multi Screen FB Filter Plate, Millipore), and washed 5 times with PBS buffer, Scintillation fluid was added to the filter plate and read in a scintillation counter. IC50 values were determined by fitting the data to the standard 4 parameters with Hill Slope using GraphPad Prism software.

A further series is described as follows: FaSSIF solubility. The note with it: 25 °C, thermodynamic from solid.
In another series the test system is sDMA in tumor samples. Kind of series: sDMA levels in Granta-519 xenograft tumor samples by western blot. It counts as in vivo, mouse. Particulars: 12 hours after last dosing. On the procedure: Granta-519 cells was maintained in DMEM medium supplemented with 10% fetal bovine serum and 2 mM L-Glutamine at 37° C. in an atmosphere of 5% CO2 in air. Cells in exponential growth phase were harvested and 1×10^7 cells in 0.1 mL of PBS with Matrigel (1:1) were injected subcutaneously at the right lower flank region of each mouse for tumor development. The treatments were started when the mean tumor size reaches approximately 300-400 mm^3. […] Example 47 or vehicle (0.5% Na CMC+0.5% Tween80, suspension) were administered orally (QD for Example 47, QD for vehicle) at a dose of 30 mg/kg and 50 mg/kg for 19 and 16 days, respectively. Body weights and tumor size were measured every 3 to 4 days after randomization. Animals were euthanized 12 hours after last dosing, and blood and tumor samples were collected for analysis.
To measure sDMA levels in tumor samples, tumors from each mouse were weighted and homogenized in RIPA buffer supplemented with protease inhibitor (cOmplete™, EDTA-free Protease Inhibitor Cocktail, Roche). Lysate were centrifuged at 14,000 rpm for 30 min at 4° C. to remove debris. Total protein concentrations of lysate were determined by BCA assay (ThermoFisher Scientific, Catalog #: 23225). Equal amount of total proteins from each tumor were separated on SDS-PAGE gel, and sDMA levels were determined by WB as described previously.
(In general: In western blotting, separated proteins are transferred to a membrane and probed.)

PRMT5/MEP50 complex, sequence (O14744 whole entry): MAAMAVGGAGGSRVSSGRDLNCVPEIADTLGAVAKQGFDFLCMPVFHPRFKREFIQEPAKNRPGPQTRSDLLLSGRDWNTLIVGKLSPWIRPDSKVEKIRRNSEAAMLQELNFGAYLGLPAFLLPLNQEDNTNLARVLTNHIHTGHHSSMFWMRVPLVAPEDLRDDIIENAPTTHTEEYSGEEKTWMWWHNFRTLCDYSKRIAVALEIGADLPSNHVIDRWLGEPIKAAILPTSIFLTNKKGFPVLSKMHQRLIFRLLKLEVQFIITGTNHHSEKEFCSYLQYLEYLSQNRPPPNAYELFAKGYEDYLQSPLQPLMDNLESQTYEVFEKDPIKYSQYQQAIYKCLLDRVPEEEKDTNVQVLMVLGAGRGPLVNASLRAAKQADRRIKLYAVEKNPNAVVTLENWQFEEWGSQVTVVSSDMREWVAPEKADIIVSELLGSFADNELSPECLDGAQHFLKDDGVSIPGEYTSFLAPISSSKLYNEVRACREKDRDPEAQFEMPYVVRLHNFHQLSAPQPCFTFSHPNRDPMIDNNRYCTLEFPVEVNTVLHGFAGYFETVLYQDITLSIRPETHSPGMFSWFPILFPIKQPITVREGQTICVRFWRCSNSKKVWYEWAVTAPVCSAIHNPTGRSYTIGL
PRMT5/MEP50 complex, sequence (Q9BQA1 whole entry partner): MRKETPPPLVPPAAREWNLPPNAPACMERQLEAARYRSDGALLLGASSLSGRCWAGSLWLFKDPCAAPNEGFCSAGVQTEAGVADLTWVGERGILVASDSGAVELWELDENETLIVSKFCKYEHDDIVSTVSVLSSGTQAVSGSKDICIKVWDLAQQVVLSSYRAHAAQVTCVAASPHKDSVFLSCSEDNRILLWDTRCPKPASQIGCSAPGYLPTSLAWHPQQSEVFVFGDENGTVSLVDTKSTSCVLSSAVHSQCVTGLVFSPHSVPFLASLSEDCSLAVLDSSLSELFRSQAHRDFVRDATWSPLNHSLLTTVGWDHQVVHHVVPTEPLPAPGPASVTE

In general, IC50 refers to the point on the concentration scale where inhibition reaches its midpoint. As for `C[C@@]1(O)[C@@H]([C@@H](O)c2ccc(Cl)c(Cl)c2)O[C@@H](n2ccc3c(N)ncnc32)[C@@H]1O` [Example 66, (2R,3S,4R,5R)-5-(4-amino-7H-pyrrolo[2,3-d]pyrimidin-7-yl)-2-((S)-(3,4-dichlorophenyl)(hydroxy)methyl)-3-methyltetrahydrofuran-3,4-diol], the IC50 against PRMT5/MEP50 complex was determined as 707 nM.
For orientation: solubility means the concentration that dissolves in the medium under given conditions. Low values mean a poorly soluble substance, high ones a readily soluble substance. For `CC(=O)CC(c1ccccc1)c1c(O)c2ccccc2oc1=O` (centres unmarked) [Warfarin], the solubility at 4 h in the series “FaSSIF solubility” is 10 to 25 µg/mL (≈ 32.4 to 81.1 µM).
In “FaSSIF solubility” (fassif), `O=C1C(O)=C([C@H]2CC[C@H](c3ccc(Cl)cc3)CC2)C(=O)c2ccccc21` [Atovaquone] displayed a solubility at 4 h of less than 2 µg/mL.
For `C[C@@]1(O)[C@@H]([C@H](O)c2ccc(Cl)c(Cl)c2)O[C@@H](n2ccc3c(N)ncnc32)[C@@H]1O` [Example 47, (2R,3S,4R,5R)-5-(4-amino-7H-pyrrolo[2,3-d]pyrimidin-7-yl)-2-((R)-(3,4-dichlorophenyl)(hydroxy)methyl)-3-methyltetrahydrofuran-3,4-diol], in the series with sDMA in tumor samples (30 mg/kg orally QD), the “inhibition of sDMA” value is greater than 90%. Besides, in the series on sDMA in tumor samples (50 mg/kg orally QD), the “sDMA level in tumor” value was “no detectable sDMA”.
